Laboratory results reported in article PMC8033486 (Frontiers in Pharmacology, 2021).
“Also recorded” adds a separate entry of the source. Counter-ions that a name gives are not always drawn. Like-named read-outs stand apart in the source and are kept apart here.

B1: interferon-γ (protein, UniProt P01579 24-161, looked up)
Interferon gamma: QDPYVKEAENLKKYFNAGHSDVADNGTLFLGILKNWKEESDRKIMQSQIVSFYFKLFKNFKDDQSIQKSVETIKEDMNVKFFNSNKKKRDDFEKLTNYSVTDLNVQRKAIHELIQVMAELSPAAKTGKRKRSQMLFRG

Columns and labels:
SARS-CoV-2 [1] = assay: microbe, parasite or virus in culture; format: cell-based; details: for Inhibition of SARS-CoV-2-induced cytopathic effect, result in words: Vero E6
[2] = system: lentiviruses pseudotyped with SARS-CoV-2 Spike; format: cell-based
[3] = system: lentiviruses pseudotyped with SARS-CoV-2 Spike; format: cell-based; remark: listed apart in the source
in vitro = details: African green monkey
SARS-CoV-2 [4] = format: cell-based; details: Vero E6, day 3 post-infection, non-toxic concentrations
[5] = CC50, Vero E6, no virus, 3 days
[6] = Severe acute respiratory syndrome coronavirus 2, Vero C1008, 72 h, Vero E6, cytopathic effect 3 days after infection, repeated experiments, read-out: IC50 (Mean +/- SD)
[7] = Severe acute respiratory syndrome coronavirus 2, Vero C1008, Vero E6, one representative experiment with two replicates, when combined, each drug at the same concentration, read-out: IC50 value of the particular graph

Molecule | Inhibition of SARS-CoV-2-induced cytopathic effect, result in words (SARS-CoV-2 [1]) | Block of SARS-CoV-2 Spike pseudovirus entry, result in words [2] | CC50 (Vero E6 cells; Vero E6, no virus, 3 days) | IC50 (Mean +/- SD) (SARS-CoV-2 [1]) | also measured
CN(C)C(=O)COC(=O)Cc1ccc(OC(=O)c2ccc(NC(=N)N)cc2)cc1 [Camostat] | no antiviral effect on Vero E6 cells | failed to inhibit viral fusion; also recorded: displays no activity |  |  | Block of SARS-CoV-2 Spike pseudovirus entry, result in words [3]: activity was rescued; CC50 (in vitro): > 100 µM
CCOC(=O)c1c(CSc2ccccc2)n(C)c2cc(Br)c(O)c(CN(C)C)c12 [Arbidol HCl] | failed to protected Vero E6 cells from SARS-CoV-2 induced cytopathic effect | partial blocking effect |  |  | CC50 at 3 days (in vitro; [5]): > 40 µM
CCN1CCN(Cc2ccc(Nc3ncc(F)c(-c4cc(F)c5nc(C)n(C(C)C)c5c4)n3)nc2)CC1 [Abenaciclib] |  |  | > 1 µM |  | 
CCOC(=O)[C@H]1O[C@@H]1C(=O)N[C@@H](CC(C)C)C(=O)NCCC(C)C [E-64d] | partial inhibitory activity | active when TMPRSS2 is not present | > 100 µM | partialy active at 100 | 
CC(C)OC(=O)C(C)(C)Oc1ccc(C(=O)c2ccc(Cl)cc2)cc1 [Fenofibrate] |  | viral entry was abrogated |  |  | SARS-CoV-2 release to the supernatant (nucleoprotein ELISA), result in words (SARS-CoV-2 [4]): less active inhibiting viral release as compared to the rest of the inhibitors tested; CC50 at 3 days (in vitro): > 100 µM
Alpha-1 Antitrypsin | exerted an effect but required high concentrations |  |  |  | IC50, result in words (SARS-CoV-2 [1]; Vero E6, cytopathic effect): active at 12.5; CC50 (Vero E6 cells; Vero E6, no virus): > 12.5 mg/mL
Cl.Cl.O=C(O)COCCN1CCN(C(c2ccccc2)c2ccc(Cl)cc2)CC1 (stereo not drawn) [Cetirizine dihydorcloride] |  |  |  | Not Active | CC50 (Vero E6 cells): > 100 µM
CCCCN1C[C@H](O)[C@@H](O)[C@H](O)[C@H]1CO [NB-DNJ] | decreased SARS-CoV-2 cytopathic effect | failed to block viral entry | > 100 µM | active at 100 | 
COC(=O)N[C@H](C(=O)N[C@@H](Cc1ccccc1)[C@@H](O)CN(Cc1ccc(-c2ccccn2)cc1)NC(=O)[C@@H](NC(=O)OC)C(C)(C)C)C(C)(C)C.O=S(=O)(O)O [Atazanavir Sulfate] |  |  | > 20 µM | Not Active | 
CCN(CC)CCCC(C)Nc1ccnc2cc(Cl)ccc12 (stereo not drawn) [Chloroquine] |  |  |  |  | IC50 (SARS-CoV-2 [1]; Severe acute respiratory syndrome coronavirus 2, Vero C1008, 72 h, read-out: IC50 (Mean +/- SD)): 3.9 µM; IC50 (SARS-CoV-2 [1]; read-out: IC50 (Mean +/- SD)): 3.86 µM; Block of SARS-CoV-2 Spike pseudovirus entry, result in words [3]: reduced its inhibitory activity
CC(C)C(=O)OCC(=O)[C@@]12O[C@H](C3CCCCC3)O[C@@H]1C[C@H]1[C@@H]3CCC4=CC(=O)C=C[C@]4(C)[C@H]3[C@@H](O)C[C@@]12C [Ciclesonide] | failed to protected Vero E6 cells from SARS-CoV-2 induced cytopathic effect | partial blocking effect |  |  | CC50 at 3 days (in vitro; CC50): > 20 µM
CCN(CCO)CCCC(C)Nc1ccnc2cc(Cl)ccc12 (stereo not drawn) [Hydroxychloroquine] | able to inhibit viral-induced cytopathic effects at concentrations where no cytotoxic effects of the drug were observed |  |  |  | IC50 (SARS-CoV-2 [1]; [6]): 9.3 ± 11.1 µM; IC50 (SARS-CoV-2 [1]; [7]): 2.1 µM; CC50 at 3 days (in vitro; [5]): > 80 µM
CCCNC(=O)[C@H]1O[C@@H]1C(=O)N[C@H](C(=O)N1CCC[C@H]1C(=O)OC)[C@@H](C)CC [CA-074-Me] | could not be confirmed using the specific cathepsin B inhibitor CA-074-Me due to drug-associated toxicity | partial blocking effect | > 34 µM | Not Active | 
CCC(C)n1ncn(-c2ccc(N3CCN(c4ccc(OCC5COC(Cn6cncn6)(c6ccc(Cl)cc6Cl)O5)cc4)CC3)cc2)c1=O (stereo not drawn) [Itraconazole] |  |  |  |  | IC50 (SARS-CoV-2 [1]; [6]): 79.4 µM; IC50 (SARS-CoV-2 [1]; [7]): 79.4 µM; IC50 (SARS-CoV-2 [1]; Vero E6, cytopathic effect 3 days after infection, repeated experiments, read-out: IC50 (Mean +/- SD)): 80 µM; CC50 at 3 days (in vitro; [5]): > 100 µM
B1 |  |  |  |  | CC50 (Vero E6 cells; interferons, Vero E6, no virus, 3 days): > 100 × 10^2 IU/mL
